Reference: ChEMBL document CHEMBL4312014, “Nitrothiadiazolo[3,2-a]pyrimidines as promising antiglycating agents” (Eur J Med Chem, 2020)
pIC50: −log10 of the molar value. The source made the active and inactive calls. The calls are words filed in the database; no cut-off is given here.

Columns and labels:
Rattus norvegicus [1] = assay: Ex vivo inhibition of DPP4 in Wistar rat serum assessed as p-nitroaniline formation at 10 mg/kg, po by incubating compound-treated serum with Gly-Pro-p-nitroanilide substrate and measured for 30 mins by microplate reader analysis; type: functional, organism-based
[2] = Metal chelating activity assessed as inhibition of Cu2+ ion-induced oxidation of ascorbic acid compound treated with CuSO4.5H2O for 5 mins followed by ascorbate addition and measured immediately by spectrophotometric analysis
[3] = Anti-glycation activity assessed as inhibition of AGE formation by measuring decrease in glycated BSA protein level at 100 uM incubated for 24 hrs in presence of glucose by fluorescence based assay relative to control; type: functional
[4] = Anti-glycation activity assessed as inhibition of AGE formation by measuring decrease in glycated BSA protein level at 1000 uM incubated for 24 hrs in presence of glucose by fluorescence based assay relative to control; type: functional
[5] = Anti-glycation activity assessed as inhibition of AGE formation by measuring decrease in glycated BSA protein level incubated for 24 hrs in presence of glucose by fluorescence based assay; type: functional
Rattus norvegicus [6] = assay: Ex vivo inhibition of DPP4 in Wistar rat serum assessed as decrease in p-nitroaniline formation at 10 mg/kg, po by incubating 0 to 4 hrs compound-treated serum with Gly-Pro-p-nitroanilide substrate and measured for 30 mins by microplate reader analysis; type: functional, organism-based
Dipeptidyl peptidase 4 [7] = biological target: T1, Dipeptidyl peptidase 4 (Homo sapiens, UniProt P27487); type: cell-free, Serum
Target sequence in this assay (P27487 whole entry): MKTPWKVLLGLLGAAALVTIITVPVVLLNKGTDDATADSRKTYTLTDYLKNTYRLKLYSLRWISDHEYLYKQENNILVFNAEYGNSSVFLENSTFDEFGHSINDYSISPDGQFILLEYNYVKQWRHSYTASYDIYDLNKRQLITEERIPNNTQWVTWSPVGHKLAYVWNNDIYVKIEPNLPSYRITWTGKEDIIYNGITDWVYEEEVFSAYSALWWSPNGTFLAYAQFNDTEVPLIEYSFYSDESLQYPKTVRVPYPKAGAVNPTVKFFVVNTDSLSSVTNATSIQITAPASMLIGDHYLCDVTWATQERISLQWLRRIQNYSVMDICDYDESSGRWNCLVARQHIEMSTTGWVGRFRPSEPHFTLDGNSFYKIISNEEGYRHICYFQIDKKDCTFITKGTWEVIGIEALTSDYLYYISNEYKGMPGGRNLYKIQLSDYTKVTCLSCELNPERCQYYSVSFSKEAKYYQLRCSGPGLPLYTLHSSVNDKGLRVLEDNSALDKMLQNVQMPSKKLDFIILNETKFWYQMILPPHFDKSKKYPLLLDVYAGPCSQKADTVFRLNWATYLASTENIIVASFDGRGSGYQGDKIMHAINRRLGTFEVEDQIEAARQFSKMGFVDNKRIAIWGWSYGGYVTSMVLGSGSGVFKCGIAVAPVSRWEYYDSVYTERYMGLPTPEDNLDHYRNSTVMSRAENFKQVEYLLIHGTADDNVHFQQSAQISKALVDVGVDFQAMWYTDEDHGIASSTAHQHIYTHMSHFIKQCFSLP

Dipeptidyl peptidase 4 [8] = biological target: T1, Dipeptidyl peptidase 4; settings: Serum, at 100 µM
Target sequence in this assay (P27487 whole entry, looked up): as the sequence (P27487 whole entry) above

Rattus norvegicus [9] = assay: Ex vivo inhibition of DPP4 in Wistar rat serum assessed as decrease in p-nitroaniline formation at 10 mg/kg, po by incubating 0 to 2 hrs compound-treated serum with Gly-Pro-p-nitroanilide substrate and measured for 30 mins by microplate reader analysis; type: functional, organism-based

Structure (SMILES)	inhibition (Rattus norvegicus [1])	pIC50 [2]	inhibition [3]	inhibition [4]	pIC50 [5]	inhibition (Rattus norvegicus [6])	pIC50 (Dipeptidyl peptidase 4 [7])	inhibition (Dipeptidyl peptidase 4 [8])	inhibition (Rattus norvegicus [9])
CC(=O)OCCNc1nc2scnn2c(=O)c1[N+](=O)[O-]	Active	< 3.70	44.8%	50.8%					
CC(C)(C)Nc1nc2scnn2c(=O)c1[N+](=O)[O-]	Active	4.25	21.3%	63.8%	3.74				
CC(C)Nc1nc2scnn2c(=O)c1[N+](=O)[O-]	Active	< 3.70	30%	69.6%	3.49				
CC(=O)OCCCNc1nc2scnn2c(=O)c1[N+](=O)[O-]	Active	3.94	12.5%	37.2%					
O=c1c([N+](=O)[O-])c(NCCCCO)nc2scnn12	Active	< 3.70	26.1%	43.6%					
N#C[C@@H]1CCCN1C(=O)CNC12CC3CC(CC(O)(C3)C1)C2						Active			
N=C(N)NN [PIMAGEDINE]		< 3.00	6%	57.8%	3.12				
O=c1c([N+](=O)[O-])c(NCC(O)CO)nc2scnn12 (stereo not drawn)	Active	< 3.70	10.3%	33.7%					
CCc1ccc(CCOc2ccc(CC3SC(=O)NC3=O)cc2)nc1 (stereo not drawn) [PIOGLITAZONE]		4.36							
O=c1c([N+](=O)[O-])c(NCCCO)nc2scnn12	Active	< 3.70	16.1%	32.7%					
O=c1c([N+](=O)[O-])c(NCCc2ccc(O)cc2)nc2scnn12	Active	< 3.70	43.8%	76.8%	3.78		< 4.00	42.1%	
O=C(O)CCCCC1CCSS1 (stereo not drawn) [LIPOIC ACID, ALPHA]		4.16							
CC(=O)OCCCCNc1nc2scnn2c(=O)c1[N+](=O)[O-]	Active	< 3.70	11.5%	37.5%					
CCCNc1nc2scnn2c(=O)c1[N+](=O)[O-]	Active	4.21	14.9%	52.5%					
CC(C)CNc1nc2scnn2c(=O)c1[N+](=O)[O-]	Active	4.43	23.1%	73.9%	3.54				
CC1(C)OCC(CNc2nc3scnn3c(=O)c2[N+](=O)[O-])O1 (stereo not drawn)	Active	4.32	42.1%	71.4%	3.68				
O=c1c([N+](=O)[O-])c(NCCc2ccc(Cl)cc2)nc2scnn12		< 3.70	48.8%	87.4%	3.87		4.25	69.8%	Active
O=c1c([N+](=O)[O-])c(NCCO)nc2scnn12	Active	4.06	29.5%	44.4%					
CCCCNc1nc2scnn2c(=O)c1[N+](=O)[O-]	Active	4.10	32.1%	77%	3.69				
